We go through eleven molecules from ChEMBL document CHEMBL3407452, “Linear and branched alkyl-esters and amides of gallic acid and other (mono-, di- and tri-) hydroxy benzoyl derivatives as promising anti-HCV inhibitors” (Eur J Med Chem, 2015).

SMILES strings stand for the structures. Activity calls are given as the source filed them. The rule behind the calls is not given here.

Data set [1] can be described thus: Cytotoxicity against human Huh5-2 cells after 72 hrs by MTS assay. The class given is cell-based, Huh-5-2. For orientation: Tetrazolium assays rely on reduction of a dye to a coloured formazan, in cell work by metabolically active cells.
For another data set, the system named is Hepatitis C virus. Briefly: Antiviral activity against HCV genotype 1b I389luc-ubi-neo/NS3-3'/5.1 replicons infected in human Huh5-2 HCV subgenomic replicon-containing cells assessed as reduction in virus replication after 3 days by luciferase reporter gene assay. The note with it: Hepatitis C virus, genotype 1b, Huh-5-2, 72 h; for EC50: read-out: EC50. Format: functional, Hepacivirus hominis.

For a further data set, the system named is Felid alphaherpesvirus 1. Briefly: Antiviral activity against feline herpesvirus. The class given is functional, organism-based.
Another data set relates to Coxsackievirus B4. Kind of data set: Antiviral activity against human coxsackievirus B4. Format: functional, organism-based.
Data set [2] has as its system Respiratory syncytial virus. Kind of data set: Antiviral activity against RSV. Format: functional, organism-based.
For another data set, the system named is Vaccinia virus. Briefly: Antiviral activity against vaccinia virus. The class given is functional, organism-based. Conditions: Orthopoxvirus vaccinia.
Data set [3] relates to Human immunodeficiency virus 1. Briefly: Antiviral activity against HIV1 3B infected in human CEM cells assessed as reduction in virus-induced cytopathicity after 4 to 5 days by microscopy based syncytium cell formation assay. Conditions: Human immunodeficiency virus 1, 3B, CCRF-CEM; read-out: EC50. The class given is functional, organism-based, CCRF-CEM.
The test system of data set [4] is Vesicular stomatitis virus. Briefly: Antiviral activity against vesicular stomatitis virus. Format: functional, organism-based.
For the next data set, the system named is Influenza A virus. Kind of data set: Antiviral activity against influenza A virus (H1N1). Format: functional, organism-based.
A further data set concerns Sindbis virus. Briefly: Antiviral activity against sindbis virus. Format: functional, organism-based.
A further data set relates to Feline coronavirus. Kind of data set: Antiviral activity against feline coronavirus. The class given is functional, organism-based.
The next data set concerns Influenza A virus H3N2. Briefly: Antiviral activity against influenza A virus H3N2. The class given is functional, organism-based.
In another data set the test system is Chikungunya virus. Briefly: Antiviral activity against chikungunya virus. Format: functional.
The subject of a further data set is Punta Toro virus. Briefly: Antiviral activity against punta toro virus. Format: functional, organism-based.
Another data set deals with Human respirovirus 3. Briefly: Antiviral activity against human parainfluenza virus 3. Format: functional, organism-based.
A short description of data set [5]: Cytotoxicity against human CEM cells assessed as inhibition of cell proliferation. The class given is cell-based. The note with it: CEM cells (CCRF-CEM).
A further data set relates to Reovirus sp. Kind of data set: Antiviral activity against reovirus. The class given is functional, organism-based.
For data set [6], the system named is Human immunodeficiency virus 2. Briefly: Antiviral activity against HIV2 ROD infected in human CEM cells assessed as reduction in virus-induced cytopathicity after 4 to 5 days by microscopy based syncytium cell formation assay. The note with it: Human immunodeficiency virus 2, ISOLATE ROD, CCRF-CEM; read-out: EC50. The class given is functional, organism-based, ISOLATE ROD, CCRF-CEM. (In general: Protection from cytopathic effect is a common read-out in antiviral testing.)

The term CC50 denotes the concentration giving 50% cytotoxicity. The term EC50 denotes the concentration giving half of the maximal effect. In turn, `CCC[C@H](NC(=O)[C@@H]1[C@H]2CCC[C@H]2CN1C(=O)[C@@H](NC(=O)[C@@H](NC(=O)c1cnccn1)C1CCCCC1)C(C)(C)C)C(=O)C(=O)NC1CC1` [TELAPREVIR] displayed a half-maximal cytotoxic concentration (CC50) at 72 h in data set [1] of 47 µM. Further, in the data set with Hepatitis C virus, the EC50 came out at 2.8 µM.
Broadly, the EC90 is the point of the concentration-response curve where the effect stands at 90%. As for `O=C(NCCCCCCCCNC(=O)c1cc(O)c(O)c(O)c1)c1cc(O)c(O)c(O)c1`, the outcome (in the data set on Felid alphaherpesvirus 1; with Coxsackievirus B4; in data set [2]; in the data set with Vaccinia virus; in [4]; in the data set on Influenza A virus) was inactive. The result in the data set with Sindbis virus, in the data set with Feline coronavirus, with Influenza A virus H3N2, in the data set on Chikungunya virus, with Punta Toro virus and in the data set on Human respirovirus 3 was inactive. In addition, in the data set on Reovirus sp., the result was inactive. The half-maximal cytotoxic concentration (CC50) at 72 h in data set [1] was over 50 µM. Besides, the half-maximal effective concentration (EC50) was over 10 µM in data set [3] and 23 µM in the data set on Hepatitis C virus. Besides, the concentration for an effect of 90% (EC90) in the data set with Hepatitis C virus is over 50 µM. In [5], the CC50 is 51 µM.
Take `CCCCCCCCOC(=O)c1cc(O)c(O)c(O)c1` [OCTYL_GALLATE]: the outcome (in the data set with Felid alphaherpesvirus 1; in the data set with Coxsackievirus B4; in [2]; in the data set on Vaccinia virus; in [4]; in the data set with Influenza A virus) was inactive. The outcome in the data set on Sindbis virus, in the data set on Feline coronavirus, in the data set on Influenza A virus H3N2, with Chikungunya virus, with Punta Toro virus and in the data set on Human respirovirus 3 was inactive. Moreover, the outcome with Reovirus sp. was inactive. For the same molecule, the EC50 in data set [3] and in [6] was over 2 µM in each case. In addition, the CC50 in data set [5] stood at 11 µM.
Regarding `O=C(NCCN(CCNC(=O)c1cc(O)c(O)c(O)c1)C(=O)c1cc(O)c(O)c(O)c1)c1cc(O)c(O)c(O)c1`, the outcome (in the data set with Felid alphaherpesvirus 1; with Coxsackievirus B4; in data set [2]; in the data set with Vaccinia virus; in [4]; in the data set on Influenza A virus) was inactive. Moreover, the outcome in the data set with Sindbis virus, in the data set with Feline coronavirus, with Influenza A virus H3N2, with Chikungunya virus, in the data set on Punta Toro virus and in the data set with Human respirovirus 3 was inactive. Besides, the outcome with Reovirus sp. was inactive. For the same molecule, the EC50 in data set [3] and in data set [6] was over 10 µM in each case. The CC50 in [5] was 34 µM.
Turning to `O=C(NCCCCNC(=O)c1ccccc1O)c1ccccc1O`, the result (with Felid alphaherpesvirus 1; in the data set with Coxsackievirus B4; in data set [2]; in the data set on Vaccinia virus; in data set [4]; in the data set with Influenza A virus) was inactive. Moreover, the outcome with Sindbis virus, with Feline coronavirus, in the data set with Influenza A virus H3N2, in the data set on Chikungunya virus, in the data set on Punta Toro virus and with Human respirovirus 3 was inactive. The outcome in the data set on Reovirus sp. was inactive. The CC50 at 72 h in data set [1] was over 49 µM. The half-maximal effective concentration (EC50) is over 10 µM in [3] and 11 µM with Hepatitis C virus. The CC50 in [5] was found to be 35 µM.
`O=C(NCCNC(=O)c1cccc(O)c1O)c1cccc(O)c1O`: the result (in the data set on Felid alphaherpesvirus 1; in the data set with Coxsackievirus B4; in data set [2]; in the data set with Vaccinia virus; in data set [4]; with Influenza A virus) was inactive. For the same molecule, the outcome with Sindbis virus, in the data set with Feline coronavirus, in the data set on Influenza A virus H3N2, with Chikungunya virus, in the data set on Punta Toro virus and with Human respirovirus 3 was inactive. For the same molecule, the result in the data set with Reovirus sp. was inactive. In addition, the EC50 in data set [3] and in data set [6] was over 10 µM in each case. The CC50 in [5] amounted to 19 µM.
In data set [1], `COc1ccc(C(=O)NCCCCCCCCCCCCNC(=O)c2ccc(OC)c(OC)c2OC)c(OC)c1OC` yielded a CC50 at 72 h of 5.4 µM. Also, the EC50 in the data set with Hepatitis C virus was over 3.5 µM.
Consider `O=C(NCCCCNC(=O)c1cccc(O)c1O)c1cccc(O)c1O`, for which the result (in the data set on Felid alphaherpesvirus 1; with Coxsackievirus B4; in data set [2]; in the data set on Vaccinia virus; in data set [4]; in the data set with Influenza A virus) was inactive. Besides, the result with Sindbis virus, with Feline coronavirus, in the data set with Influenza A virus H3N2, in the data set with Chikungunya virus, in the data set on Punta Toro virus and with Human respirovirus 3 was inactive. The result with Reovirus sp. was inactive. The concentration for a half-maximal effect (EC50) in [3] is over 2 µM. Also, the cytotoxic concentration (CC50) in data set [5] stood at 5.2 µM.
`O=C(NCCNC(=O)c1ccccc1O)c1ccccc1O`: the outcome (with Felid alphaherpesvirus 1; in the data set on Coxsackievirus B4; in [2]; with Vaccinia virus; in data set [4]; with Influenza A virus) was inactive. In addition, the result in the data set with Sindbis virus, in the data set with Feline coronavirus, with Influenza A virus H3N2, with Chikungunya virus, in the data set on Punta Toro virus and in the data set with Human respirovirus 3 was inactive. Also, the result in the data set on Reovirus sp. was inactive. In addition, the EC50 in data set [3] and in data set [6] was over 10 µM throughout. In data set [5], the CC50 was determined as 25 µM.
As to `O=C(O)c1cc(O)c(O)c(O)c1` [GALLIC ACID], the outcome (in the data set on Felid alphaherpesvirus 1; with Coxsackievirus B4; in [2]; in the data set on Vaccinia virus; in data set [4]; in the data set with Influenza A virus) was inactive. In addition, the result with Sindbis virus, with Feline coronavirus, in the data set on Influenza A virus H3N2, in the data set on Chikungunya virus, with Punta Toro virus and in the data set on Human respirovirus 3 was inactive. For the same molecule, the outcome in the data set on Reovirus sp. was inactive. The concentration giving a half-maximal response (EC50) in data set [3] and in data set [6] was over 50 µM each time. Further, the 50% cytotoxic concentration (CC50) in data set [5] is over 250 µM.
Take `CN[C@@H]1[C@H](O[C@@H]2OC[C@@H](O)[C@H](O)[C@H]2O)[C@@H](O)[C@H](O[C@H]2c3cc(C)c(C(=O)N[C@H](C)C(=O)O)c(O)c3-c3c(cc4c(c3O)C(=O)c3cc(OC)cc(O)c3C4=O)[C@@H]2O)O[C@@H]1C` [PRADIMICIN A]: in data set [3], the concentration giving a half-maximal response (EC50) was 3.3 µM. Besides, the CC50 in data set [5] is over 100 µM.
